According to PubChem BioAssay (NCI):
Several values for one entry are separate records, joined by “and”; a condition that tells them apart may be missing. Equal entries are not always repeated.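 Results reflect a 48-hour exposure of cells in 96-well plates to compound at five concentrations. GI50 is the concentration that inhibits growth by half. At the TGI there is no net growth.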

Experiments:
Assay in all cases: NCI tumour cell line growth inhibition, 48 h
XF 498 CNS = system: XF 498 CNS
DMS 273 small cell lung = system: DMS 273 small cell lung
MDA-N = system: MDA-N
SN12K1 renal = system: SN12K1 renal
DLD-1 colon = system: DLD-1 colon
P388/ADR leukemia = system: P388/ADR leukemia
T-47D breast = system: T-47D breast
P388 leukemia = system: P388 leukemia
M19-MEL melanoma = system: M19-MEL melanoma
DMS 114 small cell lung = system: DMS 114 small cell lung
RXF-631 renal = system: RXF-631 renal
LXFL 529 NSCLC = system: LXFL 529 NSCLC

SMILES | GI50 (XF 498 CNS) [µM] | TGI (XF 498 CNS) | TGI (DMS 273 small cell lung) [µM] | GI50 (MDA-N) [µM] | TGI (MDA-N) [µM] | TGI (SN12K1 renal) [µM] | GI50 (DLD-1 colon) [µM] | TGI (DLD-1 colon) [µM] | TGI (P388/ADR leukemia) [µM] | TGI (T-47D breast) [µM] | TGI (P388 leukemia) [µM] | GI50 (M19-MEL melanoma) [µM] | TGI (M19-MEL melanoma) | TGI (DMS 114 small cell lung) [µM] | TGI (RXF-631 renal) [µM] | TGI (LXFL 529 NSCLC) [µM] | GI50 (T-47D breast) [µM]
NC(=S)N/N=C/c1ncccc1O | 4.88 | 39.7 µM and 5.52 µM | 5.96 | 1.9 | > 853 | 13.7 | 3.79 | > 774 | > 1000 | > 823 | 1.26 | 3.48 | 16.9 µM and 39.7 µM | – | – | – | –
CC1=C(C(=O)Nc2ccccc2)C(c2ccc(Cl)c(Cl)c2)C(C(=O)Nc2ccccc2)=C(C)N1 | – | 30.6 µM | 27.5 | – | – | – | – | 25.7 | – | – | – | – | 25.6 µM | 24.8 | 27.7 | 25.6 | –
CCCCCCCCCCCC[N+]12CC[N+](CCN)(CC1)CC2 | – | > 100 µM | 31.9 | – | – | – | – | > 100 | – | – | – | – | > 100 µM | > 100 | > 100 | > 100 | –
Nc1nc(Cl)nc2c1ncn2C1CC(O)C(CO)O1 (stereo not given) | – | – | 47.1 | – | – | > 24.9 | – | > 100 | > 100 | > 100 | 0.498 | – | > 100 µM | – | – | – | 5.75
